Molecules are shown by their SMILES.

For twelve molecules, IC50 results are on record in patent publication US20220096450A1, “Compounds and Methods for Treating or Preventing Heart Failure” (DREXEL UNIVERSITY, priority 2019, published 2022).

In one test the target is SQOR (Homo sapiens, UniProt Q9Y6N5). Put plainly: DCIP endpoint assay of SQOR activity. Format: biochemical. The settings on record: Table 1, SAR of Set A/A′ and Set B; read-out: IC50. On the procedure: The assay is based on the ability of reduced CoQ1, which is produced in the SQOR reaction, to nonenzymically reduce 2,6-dichloroindiphenol (DCIP) (Δεox-red=20 mM−1 cm−1 at 600 nm). Reaction mixtures containing SQOR, substrates (H2S, sulfite, CoQ1) and various concentrations of an inhibitor are incubated in 96-well plates for 60 s. The reactions are quenched by addition of formaldehyde and N-ethylmaleimide to denature SQOR and consume unreacted H2S, respectively, and are then incubated for 10 min prior to addition of DCIP. The absorbance at 600 nm is read 30 s after DCIP addition by using a BioTek Synergy 2 plate reader.
SQOR, sequence (Q9Y6N5 whole entry): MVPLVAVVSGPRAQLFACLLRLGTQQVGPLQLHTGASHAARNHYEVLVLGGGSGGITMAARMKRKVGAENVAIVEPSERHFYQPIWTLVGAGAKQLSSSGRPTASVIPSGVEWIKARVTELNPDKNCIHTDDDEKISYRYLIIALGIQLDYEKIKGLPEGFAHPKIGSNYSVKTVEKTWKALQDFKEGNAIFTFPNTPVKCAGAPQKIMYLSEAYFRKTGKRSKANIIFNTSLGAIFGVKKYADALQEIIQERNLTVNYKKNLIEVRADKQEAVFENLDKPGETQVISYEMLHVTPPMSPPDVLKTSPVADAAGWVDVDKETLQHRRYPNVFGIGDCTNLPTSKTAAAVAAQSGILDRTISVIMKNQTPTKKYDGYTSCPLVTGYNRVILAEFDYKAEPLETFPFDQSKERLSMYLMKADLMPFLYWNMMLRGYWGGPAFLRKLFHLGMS
With `Cc1ccc(C)c(-c2cc(-c3ccc4c(c3)OCO4)c(C#N)c(N)n2)c1` [Compound 15, 2-amino-4-(benzo[d][1,3]dioxol-5-yl)-6-(2,5-dimethylphenyl)nicotinonitrile], the IC50 (commonly the concentration that inhibits the measured activity by half) is 1100 nM. For the molecule `CCOc1nc(-c2ccccc2)cc(-c2ccc3c(c2)OCO3)c1C#N` [Compound 12, 4-(benzo[d][1,3]dioxol-5-yl)-2-ethoxy-6-phenylnicotinonitrile], the IC50 was 890 nM.

Consider `N#Cc1c(-c2ccccc2)cc(-c2ccc(F)cc2)nc1N` [Compound 14, 2-amino-6-(4-fluorophenyl)-4-phenylnicotinonitrile], for which the 50% inhibitory concentration (IC50) was 600 nM.

As for `O=[N+]([O-])c1cc(Cl)c(-n2cccc2)cc1N1CCOCC1` [Compound 19, 4-(4-chloro-2-nitro-5-(1H-pyrrol-1-yl)phenyl)morpholine], the IC50 turned out to be 440 nM.

Staying with this test, now noted: Table 2, SAR of Set C; read-out: IC50.
In the case of `Cc1ccc(Sc2cc(N3CCOCC3)c(C)cc2[N+](=O)[O-])cc1` [Compound 3, 4-(2-methyl-4-nitro-5-(p-tolylthio)phenyl)morpholine], the IC50 was 8 nM.

Still in this test, the particulars now being: Table 3; read-out: IC50.
As for `Cc1cccnc1-c1cc(-c2ccc(F)cc2)c(C#N)c(OCc2ccccn2)n1` [2-((Pyridin-2-yl)methoxy)-4-(4-fluorophenyl)-6-(3-methylpyridin-2-yl)pyridine-3-carbonitrile], the IC50 came out at 32 nM. Still for that read-out and setting: then `CCOc1nc(-c2ccccc2)nc(-c2ccccc2)c1C#N` [4-Ethoxy-2,6-diphenylpyrimidine-5-carbonitrile], with 120 nM; and `COc1nc(-c2ccc(O)cc2)cc(-c2ccc(F)cc2)c1C#N` [4-(4-Fluorophenyl)-6-(4-hydroxyphenyl)-2-methoxypyridine-3-carbonitrile], with 1000 nM. For the molecule `COc1nc(-c2ccccc2)cc(-c2cccc(O)c2)c1C#N` [4-(3-Hydroxyphenyl)-2-methoxy-6-phenylpyridine-3-carbonitrile], the IC50 came to 1900 nM. `COc1nc(-c2cccc(O)c2)cc(-c2ccc(F)cc2)c1C#N` [4-(4-fluorophenyl)-6-(3-hydroxyphenyl)-2-methoxypyridine-3-carbonitrile]: the IC50 came out at 230 nM. Take `C=CCOc1nc(-c2ccccn2)cc(-c2ccc(F)cc2)c1C#N` [2-(Allyloxy)-4-(4-fluorophenyl)-6-(pyridin-2-yl)pyridine-3-carbonitrile]: the IC50 came out at 7.2 nM. On to `COC(=O)N1CCN(CCOc2nc(-c3ncccc3C)cc(-c3ccc(F)cc3)c2C#N)CC1` [Methyl 4-(2-(3-cyano-4-(4-fluorophenyl)-6-(3-methylpyridin-2-yl)pyridin-2-yloxy)ethyl)piperazine-1-carboxylate], for which the IC50 was found to be 540 nM.
